According to US9217015B2, “Cyclosporin derivatives for the treatment and prevention of a viral infection” (S&T Global Inc., priority 2010, dated 2015):
Read-outs that look alike come from different tables or passages of the source. Numbered stars: 1 amine (or outer) side, 2 acyl side, 3 side chain; on linkers, the order of the positions; unused ones are H or OH. Square brackets hold non-standard residues; d marks the D form. Peptide text beside a SMILES is read from it. ξ: configuration not given here. MeBmt = C/C=C/C[C@@H](C)[C@@H](O)[C@H](NC)C(=O)O; X1 = CN([C@H](SCCCN1CCOCC1)C(=O)[*:2])[*:1]; X2 = CCN(CC)CCCS[C@H](C(=O)[*:2])N(C)[*:1]; X3 = CCN(CC)CCS[C@H](C(=O)[*:2])N(C)[*:1]; NMeIle(3ξ) = CCC(C)[C@H](NC)C(=O)O; NMeL = CN[C@@H](CC(C)C)C(=O)O; NMeV = CN[C@H](C(=O)O)C(C)C; Abu = CC[C@H](N)C(=O)O

Legend:
[1] = format: physicochemical
Protocol: The stability of Cyclosporin derivatives were evaluated in methanol at 65° C. and 50° C., and HPLC was used to monitor possible degradation of these compounds (C8, 250 mm, NH4OAc 10 mmol in MeCN and H2O, operation temperature: 65° C.).

[2] = system: HCV replicon; test: HCV subgenomic replicon assay (Huh7 ET luc-ubi-neo/ET cells, luciferase end point); format: cell-based; conditions: read-out: Antiviral activity IC50
Protocol: The anti-HCV activity of cyclosporine derivatives were evaluated in the HCV subgenomic replicon assay. The assay use the cell line ET (luc-ubi-neo/ET), which is a Huh7 human hepatoma cell line harboring an HCV replicon with a stable luciferase (Luc) reporter. HCV RNA replication was assessed by quantifying HCV replicon-derived luciferase activity. The antiviral activity of cyclosporine analogs were evaluated after drug treatment, the EC 50 and EC 90 were determined in subsequent assessments by using the luciferase end point (Krieger, N. et al., 2001, J. Virol. 75:4614-4624; Pietschmann, T. et al., 2002, J. Virol. 76:4008-4021; each of which is incorporated herein by reference).

[3] = Huh7 ET (luc-ubi-neo/ET) cells, HCV replicon-derived luciferase activity

For `C/C=C/C[C@@H](C)[C@@H](O)[C@H]1C(=O)N[C@@H](CC)C(=O)N(C)[C@H](SCCCN2CCOCC2)C(=O)N(C)[C@@H](C(C)CC)C(=O)N[C@@H](C(C)C)C(=O)N(C)[C@@H](CC(C)C)C(=O)N[C@@H](C)C(=O)N[C@H](C)C(=O)N(C)[C@@H](CC(C)C)C(=O)N(C)[C@@H](CC(C)C)C(=O)N(C)[C@@H](C(C)C)C(=O)N1C` (some centres unmarked) (cyclo(A[dA][NMeL][NMeL][NMeV][MeBmt][Abu][X1][NMeIle(3ξ)]V[NMeL])), the “Epimerization in MeOH at 50° C.” value ([1]; 29 hrs) was 0%, the “Epimerization in MeOH at 50° C.” value ([1]; 77 hrs) was 0% and the “Epimerization in MeOH at 50° C.” value ([1]; 125 hrs) was 0%.

For `C/C=C/C[C@@H](C)[C@@H](O)[C@H]1C(=O)N[C@@H](CC)C(=O)N(C)[C@H](SCCCN2CCOCC2)C(=O)N(C)[C@@H](C(C)C)C(=O)N[C@@H](C(C)C)C(=O)N(C)[C@@H](CC(C)C)C(=O)N[C@@H](C)C(=O)N[C@H](C)C(=O)N(C)[C@@H](CC(C)C)C(=O)N(C)[C@@H](CC(C)C)C(=O)N(C)[C@@H](C(C)C)C(=O)N1C` (cyclo(A[dA][NMeL][NMeL][NMeV][MeBmt][Abu][X1][NMeV]V[NMeL])), the “Epimerization in MeOH at 50° C.” value ([1]; 29 hrs) was 0%, the “Epimerization in MeOH at 50° C.” value ([1]; 77 hrs) was 0% and the “Epimerization in MeOH at 50° C.” value ([1]; 125 hrs) was 0%.

For `C/C=C/C[C@@H](C)[C@@H](O)[C@H]1C(=O)N[C@@H](CC)C(=O)N(C)[C@H](SCCCN(CC)CC)C(=O)N(C)[C@@H](C(C)CC)C(=O)N[C@@H](C(C)C)C(=O)N(C)[C@@H](CC(C)C)C(=O)N[C@@H](C)C(=O)N[C@H](C)C(=O)N(C)[C@@H](CC(C)C)C(=O)N(C)[C@@H](CC(C)C)C(=O)N(C)[C@@H](C(C)C)C(=O)N1C` (some centres unmarked) (cyclo(A[dA][NMeL][NMeL][NMeV][MeBmt][Abu][X2][NMeIle(3ξ)]V[NMeL])), the “Epimerization in MeOH at 50° C.” value ([1]; 29 hrs) was 0%, the “Epimerization in MeOH at 50° C.” value ([1]; 77 hrs) was 0% and the “Epimerization in MeOH at 50° C.” value ([1]; 125 hrs) was 0%.

With `C/C=C/C[C@@H](C)[C@@H](O)[C@H]1C(=O)N[C@@H](CC)C(=O)N(C)[C@H](SCCCN(CC)CC)C(=O)N(C)[C@@H](C(C)C)C(=O)N[C@@H](C(C)C)C(=O)N(C)[C@@H](CC(C)C)C(=O)N[C@@H](C)C(=O)N[C@H](C)C(=O)N(C)[C@@H](CC(C)C)C(=O)N(C)[C@@H](CC(C)C)C(=O)N(C)[C@@H](C(C)C)C(=O)N1C` (cyclo(A[dA][NMeL][NMeL][NMeV][MeBmt][Abu][X2][NMeV]V[NMeL])) the “Epimerization in MeOH at 50° C.” value ([1]; 29 hrs) was 0%, the “Epimerization in MeOH at 50° C.” value ([1]; 77 hrs) was 0% and the “Epimerization in MeOH at 50° C.” value ([1]; 125 hrs) was 0%.

In the case of `C/C=C/C[C@@H](C)[C@@H](O)[C@H]1C(=O)N[C@@H](CC)C(=O)N(C)[C@H](SCCN(CC)CC)C(=O)N(C)[C@@H](C(C)C)C(=O)N[C@@H](C(C)C)C(=O)N(C)[C@@H](CC(C)C)C(=O)N[C@@H](C)C(=O)N[C@H](C)C(=O)N(C)[C@@H](CC(C)C)C(=O)N(C)[C@@H](CC(C)C)C(=O)N(C)[C@@H](C(C)C)C(=O)N1C` [Example 1, [(R)-2-(N,N-Diethylamino)ethylthio-Sar]-3-[N-methylvaline]-4-cyclosporin] (cyclo(A[dA][NMeL][NMeL][NMeV][MeBmt][Abu][X3][NMeV]V[NMeL])), the IC50 ([2]; Hepatitis C virus, Huh7 ET) is reported as 50 nM.

Work on `C/C=C/C[C@@H](C)[C@@H](O)[C@H]1C(=O)N[C@@H](CC)C(=O)N(C)[C@H](SCCN(CC)CC)C(=O)N(C)[C@@H](C(C)CC)C(=O)N[C@@H](C(C)C)C(=O)N(C)[C@@H](CC(C)C)C(=O)N[C@@H](C)C(=O)N[C@H](C)C(=O)N(C)[C@@H](CC(C)C)C(=O)N(C)[C@@H](CC(C)C)C(=O)N(C)[C@@H](C(C)C)C(=O)N1C` (stereo partly drawn) [Example 4, [(R)-2-(N,N-Diethylamino)ethylthio-Sar]-3-[N-methylisoleucine]-4-cyclosporin] (cyclo(A[dA][NMeL][NMeL][NMeV][MeBmt][Abu][X3][NMeIle(3ξ)]V[NMeL])) yielded an IC50 ([2]; Hepatitis C virus, Huh7 ET) of 40 nM.

`C/C=C/C[C@@H](C)[C@@H](O)[C@H]1C(=O)N[C@@H](CC)C(=O)N(C)[C@H](SCCCN2CCOCC2)C(=O)N(C)[C@@H](C(C)CC)C(=O)N[C@@H](C(C)C)C(=O)N(C)[C@@H](CC(C)C)C(=O)N[C@@H](C)C(=O)N[C@H](C)C(=O)N(C)[C@@H](CC(C)C)C(=O)N(C)[C@@H](CC(C)C)C(=O)N(C)[C@@H](C(C)C)C(=O)N1C` (stereo partly drawn) [Example 6, [(R)-3-(N-Morpholino)propylthio-Sar]-3-[N-methylisoleucine]-4-cyclosporin] (cyclo(A[dA][NMeL][NMeL][NMeV][MeBmt][Abu][X1][NMeIle(3ξ)]V[NMeL])) showed an IC50 ([2]; Hepatitis C virus, Huh7 ET) of 50 nM.

With `C/C=C/C[C@@H](C)[C@@H](O)[C@H]1C(=O)N[C@@H](CC)C(=O)N(C)[C@H](SCCN(C)C)C(=O)N(C)[C@@H](CC(C)(C)O)C(=O)N[C@@H](C(C)C)C(=O)N(C)[C@@H](CC(C)C)C(=O)N[C@@H](C)C(=O)N[C@H](C)C(=O)N(C)[C@@H](CC(C)C)C(=O)N(C)[C@@H](CC(C)C)C(=O)N(C)[C@@H](C(C)C)C(=O)N1C` [SCY-635, reference compound] the “Chemical stability (conversion to epimer), in words” value [1] was “not chemically stable”.

For `C/C=C/C[C@@H](C)[C@@H](O)[C@H]1C(=O)N[C@@H](CC)C(=O)N(C)CC(=O)N(C)[C@@H](C(C)C)C(=O)N[C@@H](C(C)C)C(=O)N(C)[C@@H](CC(C)C)C(=O)N[C@@H](C)C(=O)N[C@H](C)C(=O)N(C)[C@@H](CC(C)C)C(=O)N(C)[C@@H](CC(C)C)C(=O)N(C)[C@@H](C(C)C)C(=O)N1C` [SDZ-220-384, N-MeVal-4-cyclosporin, reference compound], the IC50 [2, 3] was 170 nM.

With `C/C=C/C[C@@H](C)[C@@H](O)[C@H]1C(=O)N[C@@H](CC)C(=O)N(C)CC(=O)N(C)[C@@H]([C@@H](C)CC)C(=O)N[C@@H](C(C)C)C(=O)N(C)[C@@H](CC(C)C)C(=O)N[C@@H](C)C(=O)N[C@H](C)C(=O)N(C)[C@@H](CC(C)C)C(=O)N(C)[C@@H](CC(C)C)C(=O)N(C)[C@@H](C(C)C)C(=O)N1C` [SDZ-NIM-811, N-MeIle-4-Cyclosporin, reference compound] the IC50 ([2]; Hepatitis C virus, Huh7 ET) was 150 nM.

In the case of `C/C=C/C[C@@H](C)[C@@H](O)[C@H]1C(=O)N[C@@H](CC)C(=O)N(C)[C@H](SCCN(C)C)C(=O)N(C)[C@@H](CC(C)C)C(=O)N[C@@H](C(C)C)C(=O)N(C)[C@@H](CC(C)C)C(=O)N[C@@H](C)C(=O)N[C@H](C)C(=O)N(C)[C@@H](CC(C)C)C(=O)N(C)[C@@H](CC(C)C)C(=O)N(C)[C@@H](C(C)C)C(=O)N1C` [[(R)-2-(N,N-Dimethylamino)ethylthio-Sar]-3-cyclosporin, reference compound], the “Chemical stability (conversion to epimer), in words” value [1] is reported as “not stable”.

In the case of `C/C=C/C[C@@H](C)[C@@H](O)[C@H]1C(=O)N[C@@H](CC)C(=O)N(C)[C@H](SCCN(C)C)C(=O)N(C)[C@@H](CC(C)C)C(=O)N[C@@H](C(C)C)C(=O)N(C)[C@@H](CC(C)C)C(=O)N[C@@H](C)C(=O)N[C@H](C)C(=O)N(C)[C@@H](CC(C)C)C(=O)N(C)[C@@H](CC(C)C)C(=O)N(C)[C@@H](C(C)C)C(=O)N1C` [drawing 57], the “Epimerization in MeOH at 65° C.” value ([1]; 2 hours) is reported as 12%, the “Epimerization in MeOH at 65° C.” value ([1]; 4 hours) is reported as 19% and the “Epimerization in MeOH at 65° C.” value ([1]; 6 hours) is reported as 23%.

For `C/C=C/C[C@@H](C)[C@@H](O)[C@H]1C(=O)N[C@@H](CC)C(=O)N(C)[C@H](SCCN(C)C)C(=O)N(C)[C@@H](CC(C)C)C(=O)N[C@@H](C(C)C)C(=O)N(C)[C@@H](CC(C)C)C(=O)N[C@@H](C)C(=O)N[C@H](C)C(=O)N(C)[C@@H](CC(C)C)C(=O)N(C)[C@@H](CC(C)C)C(=O)N(C)[C@@H](C(C)C)C(=O)N1C` [drawing 58, reference compound], the “Epimerization in MeOH at 50° C.” value ([1]; 29 hrs) was 25.5%, the “Epimerization in MeOH at 50° C.” value ([1]; 77 hrs) was 31.8% and the “Epimerization in MeOH at 50° C.” value ([1]; 125 hrs) was 34.9%.

For `C/C=C/C[C@@H](C)[C@@H](O)[C@H]1C(=O)N[C@@H](CC)C(=O)N(C)[C@H](SCCN(CC)CC)C(=O)N(C)[C@@H](C(C)CC)C(=O)N[C@@H](C(C)C)C(=O)N(C)[C@@H](CC(C)C)C(=O)N[C@@H](C)C(=O)N[C@H](C)C(=O)N(C)[C@@H](CC(C)C)C(=O)N(C)[C@@H](CC(C)C)C(=O)N(C)[C@@H](C(C)C)C(=O)N1C` (some centres unmarked) [reference compound] (cyclo(A[dA][NMeL][NMeL][NMeV][MeBmt][Abu][X3][NMeIle(3ξ)]V[NMeL])), the “Epimerization in MeOH at 50° C.” value ([1]; 29 hrs) was 4.4%, the “Epimerization in MeOH at 50° C.” value ([1]; 77 hrs) was 10.4% and the “Epimerization in MeOH at 50° C.” value ([1]; 125 hrs) was 16.2%.

“[(S)-2-(N,N-Diethylamino)ethylthio-Sar]-3-[N-methylvaline]-4-cyclosporin” gave an IC50 [2, 3] of 3660 nM.
